“Also recorded” adds a separate entry of the source. Marks after values point to notes of the source that are not given here.
Experiments:
[1] = test system: histamine evoked asthma in conscious guinea-pigs; assay: Protection against histamine-evoked asthma by inhaled drug in conscious guinea pigs; format: in vivo, guinea pigs (Dunkin-Hartley strain); conditions: for Latency: no collapse over 360 sec recorded as 360
Protocol: (§1) Test methods: Guinea pigs (Dunkin-Hartley strain, 200±30 g) were fasted overnight but given water ad libidum. The animals were restrained individually in a glass chamber and exposed to aerosol histamine generated by a nebulizer from a 0.2% aqueous solution of histamine under constant pressure at dose of 0.5 ml/min for a period of 15 sec. The animal was removed from the chamber, and its behavior was monitored. Assign of collapse and the latency time from exposure to collapse were recorded. Only the animals with latency time less than 120 sec, as an indication of sensitive to histamine, were chosen for later experiments. The animals chosen were allowed to recover completely by resting for 24 hours before experiments. R-bambuterol and racemic bambuterol hydrochloride were dissolved in saline and nublized in a nebulizer.
Study of dose-response: One hours before the exposure to aerosol histamine, animals were randomized into groups (n=8, equal sex), and Nublized R-bambuterol hydrochloride or bambuterol hydrochloride in doses of 63, 126, 252 and 504 μg/kg, and vehicle control were inhaled by the animals via a mouth and nasal mask. The numbers of collapsed animal as a result of asthmatic reaction to aerosol histamine were counted, and the latency times were recorded. Both of these parameters were used as quantitative measurements of the protective effects of the treatments on bronchospasm evoked by aerosol histamine.

[2] = test system: histamine evoked asthma in conscious guinea-pigs; assay: Histamine-evoked asthma in conscious guinea pigs after oral administration; format: in vivo, guinea pigs (Dunkin-Hartley strain); conditions: for Latency: no collapse over 360 sec recorded as 360
Protocol: as §1
Comparison of the anti-asthma effects of R-bambuterol (R-BM) and bambuterol (RS-BM) administered by oral and by inhalation in conscious guinea pigs. Test methods: same as Example 1.
Study of dose-response: Same as Example 1, except the following: four hours before the exposure to aerosol histamine, animals were randomized into groups (n=8, equal male and female), and given R-bambuterol hydrochloride or racemic bambuterol hydrochloride in doses of 1.0, 2.0, 4.0 and 8.0 mg/kg, and vehicle control, orally via a stomach tube.

[3] = test system: histamine evoked asthma in conscious guinea-pigs; assay: Time course of anti-asthma effects after oral administration or inhalation; format: in vivo; conditions: for No. of collapsed: n=8
Protocol: The time course of the anti-asthma effects of R-bambuterol (R-BM) and bambuterol (RS-BM) after administered by oral and by inhalation. Test Methods: same as example 1 except the following:
For orally administration, R-Bambuterol hydrochloride or racemic bambuterol hydrochloride at 4 and 8 mg/kg, and vehicle alone, were administered to the guinea pigs orally via a stomach tube. Exposure of treated animals to aerosol histamine (as above) was done at 1, 4 and 12 hours after R-bambuterol or bambuterol treatment. For each experimental group, there were a total of 8 animals with equal number in sex, and no repeated exposure was made for individual experimental animals.
For inhalation, R-Bambuterol hydrochloride or racemic bambuterol hydrochloride at 0.252 and 0.504 mg/kg, and vehicle alone, were nebulized and administered to the guinea pigs by inhalation. Exposure of drug treated animals to aerosol histamine (as above) was done at 1,4 and 12 hours after drug treatment. For each experimental group, there were a total of 8 animals with equal number in sex, and no repeated exposure was made for individual experimental animals.

[4] = test system: OVA evoked asthma in sensitized guinea pigs; assay: Airway resistance and dynamic pulmonary compliance after inhalation in OVA sensitized guinea pigs; format: in vivo; conditions: for change of Raw and Cdyn at resting state after inhalation: before OVA challenge; for protection against asthma attack by antigen (OVA) challenge: pretreatment by inhalation about three minutes before OVA challenge
Protocol: Sensitization of animals: Ovalbumin (10 μg/ml) was injected into guinea-pigs subcutaneously and coincidentally with an intraperitoneal injection of B. pertussis vaccine. Identical injection of ovalbumin and adjuvant were made day 15 and 21 days later. On day 28th the animals were examined and used for studies.
Test Methods: The sensitized guinea pigs wer anaethetized. A cannula was inserted into the trachea. A plueral cannula was inserted into pleural space through the chest wall. Airway resistance (Raw) and dynamic pulmonary compliance (Cdyn) were measured by using the signals of intraplueral pressure, airflow and tidal volume.
The animals were restreined in closed chamber and nebulized R-bambuterol or S-bambuterol were inhaled at the dose of 126 μg/kg. After three minutes conditioning, the animals were then challenged with nebulized OVA to evoke asthma. Airway resistance (Raw) and dynamic pulmonary compliance (Cdyn) were measured before and after evoking asthma.

[5] = test system: OVA evoked asthma in sensitized guinea pigs; assay: Drug tolerance to R-bambuterol induced by pretreatment; format: in vivo; conditions: for Changes in Cdyn During asthma / Changes in Raw During asthma: OVA challenge, n=8
Protocol: Animal sensitization and experiment methods were similar as discribed above. Briefly, animals were divided into three groups. R-bambuterol (8 mg/kg) or S-bamburerol (8 mg/kg) or 0.9% NaCL (control) were given orally in equal volum to each group seperatedly once a day for 7 consecutive days in order to induce drug tolerances. The Protection effects of same dosage of R-bambuterol against asthma attack induced by OVA challenge were evaluated by the changes of Airway resistance (Raw) and dynamic pulmonary compliance (Cdyn).

[6] = test system: OVA evoked asthma in sensitized guinea-pigs; assay: Relief of antigen-evoked asthma by inhalation after challenge in OVA sensitized guinea-pigs; format: in vivo; conditions: nebulized drug inhaled after antigen challenge
Description: In an embodiment of the invention, the ovalbumin (OVA) sensitized guinea-pigs were first challenged with nebulized antigen to evoke asthma, then the animals were allowed to inhale nebulized R-bambuterol or bambuterol. […] In a further embodiment of the invention, the sensitized guinea-pigs were first pretreated with nebulized R-bambuterol or bambuterol by inhalation. After three minutes, the same animals were challenged with nebulized antigen. […] The fast onset of action in the invention can also not be explained by Svenssion's in vitro metabolic study noted above that the dominate product is mono-carbamate bambuterol and litter terbutaline at initial phase., while the major amount of terbutaline will be formed at much later phase. (Svensson et al., 1988).

[7] = test system: OVA evoked asthma in sensitized guinea pigs; assay: Airway resistance and dynamic pulmonary compliance after inhalation in OVA sensitized guinea pigs; format: in vivo; conditions: n=8
[8] = inhale, at maximum effective dose (R-BM 0.252, RS-BM 0.505 mg/Kg)
[9] = oral, at maximum effective dose (R-BM 4.0, RS-BM 8.0 mg/Kg)
[10] = inhalation (R-BM 252 μg/kg, RS-BM 504 μg/kg), histamine 60 min after
[11] = inhalation (R-BM 252 μg/kg, RS-BM 504 μg/kg), histamine 240 min after
[12] = inhalation (R-BM 252 μg/kg, RS-BM 504 μg/kg), histamine 720 min after
[13] = oral (R-BM 4.0 mg/kg, RS-BM 8.0 mg/kg), histamine 60 min after
[14] = oral (R-BM 4.0 mg/kg, RS-BM 8.0 mg/kg), histamine 240 min after
[15] = oral (R-BM 4.0 mg/kg, RS-BM 8.0 mg/kg), histamine 720 min after
[16] = pretreated with the labelled substance 8 mg/kg orally once a day 7 days, then R-bambuterol
[17] = saline pretreated group, protection by R-bambuterol
[18] = R-BM inhaled 504 μg/kg, OVA challenge
[19] = after R-BM inhaled 504 μg/kg, before OVA challenge

CN(C)C(=O)Oc1cc(OC(=O)N(C)C)cc([C@@H](O)CNC(C)(C)C)c1 [R-bambuterol]
dosage required for maximum anti-asthmatic effects (complete protection against histamine) by inhalation ([1]; inhalation): 256 µg/kg | maximum effective dose required by inhalation ([1]; inhale): Inhale (0.252) mg/Kg | Animal collapsed (%) [1, 8]: 0% | Animal collapsed (number/group) [1, 8]: 0/8 | Latency ([1]; inhaled 63 μg/Kg): 95 ± 108 s | Latency ([1]; inhaled 126 μg/Kg): 243 ± 161 s | Latency ([1]; inhaled 252 μg/Kg): 360 ± 0 s | Latency ([1]; inhaled 504 μg/Kg): 360 ± 0 s | potency relative to bambuterol ([1]; inhaled aerosols, histamine evoked asthma): about twice | Oral:Inhale ratio of maximum effective dose ([1]; oral dose vs inhaled dose for maximum anti-asthmatic effect, listed as R-bamubuterol): 16 | maximum effective dose required by oral (none of the histamine challenged animals collapsed) ([2]; oral): 4 mg/kg | Latency ([2]; oral 1.0 mg/Kg): 179 ± 151 s | Latency ([2]; oral 2.0 mg/Kg): 295 ± 121 s | (Collapsed)/No. in group ([2]; oral 4.0 mg/Kg, four hours before aerosol histamine, n=8): 0/8**^▴▴ | Latency ([2]; oral 4.0 mg/Kg): 360 ± 0 s | Latency ([2]; oral 8.0 mg/Kg): 360 ± 0 s | Animal collapsed (%) [2, 9]: 0% | Animal collapsed (number/group) [2, 9]: 0/8 | maximum effective dose required by oral (none of the histamine challenged animals collapsed) ([2]; oral, listed as R-BM): Oral (4.0) mg/Kg | Latency [3, 10]: 360 ± 0 s | No. of collapsed [3, 10]: 0/8 | Latency [3, 11]: 360 ± 0 s | No. of collapsed [3, 11]: 0/8 | Latency [3, 12]: 330 ± 84 s | No. of collapsed [3, 12]: 1/8 | maximum anti-asthmatic effects by inhalation faster than by oral administration ([3]; inhalation vs oral): 4 h | Latency [3, 13]: 258 ± 141 s | No. of collapsed [3, 13]: 3/8 | Latency [3, 14]: 360 ± 0 s | No. of collapsed [3, 14]: 0/8 | Latency [3, 15]: 285 ± 129 s | No. of collapsed [3, 15]: 2/8 | change of Raw and Cdyn at resting state after inhalation [4]: reduced airway resistance and enhanced pulmonary dynamic compliance | change of Raw and Cdyn at resting state after inhalation ([4]; listed as R-Bambuterol): no significant changes both in Raw and Cdyn | protection against asthma attack by antigen (OVA) challenge [4]: significant anti-asthma effects; also recorded: fully protection against the asthma attack | protection against asthma attack by antigen (OVA) challenge ([4]; listed as R-BM): full protection | protection effects of R-bambuterol against asthmatic attack after pretreatment ([5]; group pretreated with the labelled substance): less than control but no significant differences | Changes in Cdyn During asthma [5, 16]: −0.11 ± 0.08 | Changes in Raw During asthma [5, 16]: +0.13 ± 0.09 | protection against asthma attack in control group ([5]; saline pretreated control group): fully protect against asthma attack | Changes in Cdyn During asthma [5, 17]: −0.08 ± 0.06^• | Changes in Raw During asthma [5, 17]: +0.09 ± 0.03^• | relief of asthmatic symptoms after inhalation [6]: immediately relieved within matter of tenths of seconds to a couple of minutes | Cdyn (dynamic pulmonary compliance) [7, 18]: 0.62 ± 0.02 | Raw (airway resistance) [7, 18]: 11.51 ± 1.09 | Cdyn (dynamic pulmonary compliance) [7, 19]: 0.70 ± 0.03 | Raw (airway resistance) [7, 19]: 10.91 ± 0.41
